The conditions of data set [1]: general statement, no test described; cited from earlier work.
Data set [2] deals with human heparinized blood. The data set can be described thus: Visual observation / vial inversion of blood gelled by hm-chitosan. The class given is cell-based. Conditions: 3 wt % α-CD added to blood gel formed with 0.25 wt % hm-chitosan. As for the experimental part:
(§1) 5 human subjects volunteered to have 20 mL of blood drawn by a registered nurse at the UMD School of Medicine. Subjects were healthy adults ranging age from 20 to 40 years of age (4 males, 1 female). 10 mL intervals of blood were drawn into Becton Dickinson Vacutainers® containing 143 USP units of sodium heparin. The protocol was approved by the Institutional Research Board (IRB) at UMD.
FIG. 3(a) is a photograph of human heparinized blood gelled by 0.25 wt % hm-chitosan. […] Note that this sample […] hold its own weight upon vial inversion.

In data set [3] the test system is human heparinized blood. The data set can be described thus: Dynamic rheology of hm-chitosan blood gel. It is filed as cell-based. Conditions: 3 wt % α-CD, 0.25 wt % hm-chitosan blood gel, 37° C. As to the method:
as §1
(§2) Steady and dynamic rheological experiments were performed on a […] AR2000 stress-controlled rheometer. A cone-and-plate geometry of 40 mm diameter and 4° cone angle was used and samples were run at the physiological temperature of 37° C. Dynamic frequency spectra were obtained in the linear viscoelastic regime of the samples, as determined from dynamic strain sweep experiments.

Data set [4] in a line: Steady shear rheology of hm-chitosan + vesicle mixtures. The class given is physicochemical. As to conditions: for zero-shear viscosity: hm-chitosan (benz-C18, 1.5% modified) 0.238 wt %, 37° C.; for zero-shear viscosity / viscosity drop on addition of cyclodextrin: vesicles 0.952 wt %; for viscosity drop on addition of cyclodextrin: 28.6 mM vs 0 mM cyclodextrin, hm-chitosan 0.238 wt %; for reversal of gelation of vesicles by hm-chitosan: hm-chitosan and vesicle mixtures.
Excerpt: (§3) The surfactant system employed was a mixture of the cationic surfactant, cetyl trimethylammonium tosylate (CTAT), and the anionic surfactant, sodium dodecyl benzene sulfonate (SDBS). The surfactants were purchased from Aldrich, and all solutions were made using distilled-deionized water. The phase diagram for CTAT/SDBS mixtures has been reported previously.^31 To form vesicles, CTAT and SDBS were mixed at a weight ratio of 70/30, respectively, at a combined 2 wt % concentration in water. The mixture was stirred overnight to ensure complete dissolution and equilibration of the vesicles prior to experiments.
as §2
The concentrations of hm-chitosan and vesicles were held constant at 0.238 wt % and 0.952 wt %, respectively, in both samples. One sample contained 0 mM α-CD (open diamonds) and the other contained 28.6 mM α-CD (open circles).

Data set [5] can be described thus: Dynamic rheology of hm-chitosan + vesicle mixtures. The class given is physicochemical. Conditions: 28.6 mM cyclodextrin; hm-chitosan 0.238 wt %, vesicles 0.952 wt %.
Excerpt: as §3, §2
However, at practical time scales, the hm-chitosan+vesicle+α-CD mixture behaves as a freely flowing liquid.

The values that follow come from patent US8664199B2, “Method and system for reversal of interactions between hydrophobically modified biopolymers and vesicles or cell membranes” (University of Maryland, College Park, priority 2010, dated 2014).

“Also recorded” adds a separate entry of the source.

With `OC[C@H]1O[C@@H]2O[C@H]3[C@H](O)[C@@H](O)[C@@H](O[C@H]4[C@H](O)[C@@H](O)[C@@H](O[C@H]5[C@H](O)[C@@H](O)[C@@H](O[C@H]6[C@H](O)[C@@H](O)[C@@H](O[C@H]7[C@H](O)[C@@H](O)[C@@H](O[C@H]8[C@H](O)[C@@H](O)[C@@H](O[C@H]1[C@H](O)[C@H]2O)O[C@@H]8CO)O[C@@H]7CO)O[C@@H]6CO)O[C@@H]5CO)O[C@@H]4CO)O[C@@H]3CO` [β-CD, β-cyclodextrin], the “solubility (solvent)” value in data set [1] is “more soluble in ethyl alcohol”.

For the compound `OC[C@H]1O[C@@H]2O[C@H]3[C@H](O)[C@@H](O)[C@@H](O[C@H]4[C@H](O)[C@@H](O)[C@@H](O[C@H]5[C@H](O)[C@@H](O)[C@@H](O[C@H]6[C@H](O)[C@@H](O)[C@@H](O[C@H]7[C@H](O)[C@@H](O)[C@@H](O[C@H]1[C@H](O)[C@H]2O)O[C@@H]7CO)O[C@@H]6CO)O[C@@H]5CO)O[C@@H]4CO)O[C@@H]3CO` [α-CD, α-cyclodextrin], in the data set with human heparinized blood [2], the “reversal of blood gelation (visual observation)” value is “quickly reverse the gelling and convert the sample into a thin, flowing liquid; also recorded: instantly reverse the gelling and convert the sample into a thin, flowing liquid; also recorded: disruption of the gel into a freely flowing viscous liquid”. Further, the “dynamic rheology response (G′, G″) of blood gel after supramolecule” value in the data set with human heparinized blood [3] was “liquid-like with G″>G′ over the frequency range”. Also, the zero-shear viscosity in data set [4] (28.6 mM cyclodextrin) is roughly 0.01 Pa·s. Further, in data set [4], the “viscosity drop on addition of cyclodextrin” value was “million-fold” and the “reversal of gelation of vesicles by hm-chitosan” value was “reverse the gelation of vesicles by hm-chitosan”. Further, in data set [5], the “dynamic rheology behaviour as ω→0 (long time scales)” value is “G′ and G″ are observed to overlap, indicating the onset of gelation over long time scales”; the dynamic rheology response entry is on record as “viscous liquid”. Moreover, in data set [1], the “solubility (solvent)” value is “soluble in water”.

On to `OC[C@H]1O[C@@H]2O[C@H]3[C@H](O)[C@@H](O)[C@@H](O[C@H]4[C@H](O)[C@@H](O)[C@@H](O[C@H]5[C@H](O)[C@@H](O)[C@@H](O[C@H]6[C@H](O)[C@@H](O)[C@@H](O[C@H]7[C@H](O)[C@@H](O)[C@@H](O[C@H]8[C@H](O)[C@@H](O)[C@@H](O[C@H]9[C@H](O)[C@@H](O)[C@@H](O[C@H]1[C@H](O)[C@H]2O)O[C@@H]9CO)O[C@@H]8CO)O[C@@H]7CO)O[C@@H]6CO)O[C@@H]5CO)O[C@@H]4CO)O[C@@H]3CO` [γ-CD, γ-cyclodextrin], for which the zero-shear viscosity in data set [4] (0 mM cyclodextrin, in Pa·s) is reported as ~10^1. Besides, the “viscosity drop relative to the drop caused by α-CD” value in data set [4] (28.6 mM cyclodextrin) is recorded as “thousand-fold lower”. Besides, in data set [4], the “viscosity drop on addition of cyclodextrin” value is “thousand-fold” and the “reversal of gelation of vesicles by hm-chitosan” value is “reverse the gelation of vesicles by hm-chitosan”. Further, in data set [5], the “dynamic rheology behaviour as ω→0 (long time scales)” value was “G′ and G″ are not observed to overlap, indicating that the sample does not become more gel-like as t→∞”; the dynamic rheology response result is given as “viscous liquid”. Besides, the “solubility (solvent)” value in data set [1] is recorded as “soluble in water”.
